In patent publication US11564913B2, “Compositions and methods for treating cancer” (Children's Hospital Medical Center, priority 2019, dated 2023):

System: MDA-MB-231 cells
Assay: EGF-induced lamellipodia formation / F-actin staining
Format: cell-based, human
Experimental: FIG. 5: Cytoskeletal changes induced by IODVA1 treatment. IODVA1 inhibits lamellipodia and circular dorsal ruffle (CDR) formation in MDA-MB-231 cells and decreases Rac activation. (A) IODVA1 inhibits EGF-induced lamellipodia formation in MDA-MB-231 cells. MDA-MB-231 cells were plated on fibronectin-coated coverslips, serum starved for 4 h, […], fixed and stained with Phalloidin Alexa Fluor 594 (F-Actin, pseudocolored red) and DAPI (nuclei, pseudocolored blue). Representative images show lamellipodia formation and enrichment of actin staining at the leading edge (white closed arrowheads) at 0 and 0.3 μM concentrations and lack of lamellipodia with rounded cell morphology at 1 and 3 μM. Note equally distributed phalloidin staining with presence of stress fibers in the cell body of the 1 and 3 μM treated-cells (white open arrowheads) indicative of stationary cells. Scale bar=10 μm. […] The percentage of cells with CDRs was counted as the number of cells with CDRs normalized to the total number of cells in the field. Around 150 cells were counted per condition per experiment. Cells with multiple CDRs were counted only once. […] Levels of active Rac (RacGTP, % of control), active Cdc42 (Cdc42GTP, % of control) and active RhoA (RhoAGTP, % of control) were quantified using ImageJ and ImageLab and show combined data as mean±s.e.m. from at least 3 independent experiments. […]

Q: `OC1(c2ccccn2)N=C(Nc2nc3ccccc3[nH]2)N=C1c1ccccn1` (centres unmarked) [IODVA1, (Z)-2-((1H-benzo[d]imidazol-2-yl)imino)-4,5-di(pyridin-2-yl)-2,5-dihydro-1H-imidazol-5-ol] was tested. Which “lamellipodia formation and enrichment of cortical filamentous actin” value (0-3 μM for 1 h, then EGF for 30 min) did it give?
A: The value was “inhibited”.

Q: And the “overall filamentous actin staining” value (EGF, wash out, then 3 μM within 30 min)?
A: Its value is “qualitatively reduced”.
